Source: ChEMBL document CHEMBL5360558, “Molecular design, synthesis and anticancer activity of new thiopyrano[2,3-d]thiazoles based on 5-hydroxy-1,4-naphthoquinone (juglone)” (Eur J Med Chem, 2023)
Active and inactive are the calls of the source. No cut-off for these calls is given here.

Key:
[1] = tested on: NCI-H226; experiment: Growth inhibition against human NCI-H226 cells assessed as lethal concentration incubated for 48 hrs by sulforhodamine B spectrophotometric assay; format: functional; details: read-out: LC50 (the source's name)
[2] = Cytotoxicity against human HCT116-p53-null cells assessed as cell growth inhibition incubated for 72 hrs by MTT assay; format: functional, cell-based
[3] = tested on: UO-31; experiment: Growth inhibition of human UO-31 cells incubated for 48 hrs by sulforhodamine B spectrophotometric assay; format: functional
[4] = tested on: SK-MEL-28; experiment: Growth inhibition against human SK-MEL-28 cells assessed as total growth inhibitory concentration incubated for 48 hrs by sulforhodamine B spectrophotometric assay; format: functional
[5] = tested on: HCT-116; experiment: Growth inhibition against human HCT-116 cells assessed as total growth inhibitory concentration incubated for 48 hrs by sulforhodamine B spectrophotometric assay; format: functional
[6] = tested on: HOP-62; experiment: Growth inhibition of human HOP-62 cells incubated for 48 hrs by sulforhodamine B spectrophotometric assay; format: functional
[7] = tested on: SK-MEL-2; experiment: Growth inhibition against human SK-MEL-2 cells assessed as lethal concentration incubated for 48 hrs by sulforhodamine B spectrophotometric assay; format: functional; details: read-out: LC50 (the source's name)
[8] = tested on: HOP-62; experiment: Growth inhibition against human HOP-62 cells assessed as lethal concentration incubated for 48 hrs by sulforhodamine B spectrophotometric assay; format: functional; details: read-out: LC50 (the source's name)
[9] = tested on: HCC 2998; experiment: Growth inhibition against human HCC 2998 cells assessed as total growth inhibitory concentration incubated for 48 hrs by sulforhodamine B spectrophotometric assay; format: functional
[10] = tested on: HCC 2998; experiment: Growth inhibition against human HCC 2998 cells assessed as lethal concentration incubated for 48 hrs by sulforhodamine B spectrophotometric assay; format: functional; details: read-out: LC50 (the source's name)
[11] = tested on: 786-0; experiment: Growth inhibition against human 786-0 cells assessed as total growth inhibitory concentration incubated for 48 hrs by sulforhodamine B spectrophotometric assay; format: functional
[12] = tested on: Malme-3M; experiment: Growth inhibition against human Malme-3M cells assessed as lethal concentration incubated for 48 hrs by sulforhodamine B spectrophotometric assay; format: functional; details: read-out: LC50 (the source's name)
[13] = tested on: Malme-3M; experiment: Anticancer activity against human Malme-3M cells assessed as cell growth at 10 uM incubated for 48 hrs by sulforhodamine B assay; format: functional; details: read-out: Activity
[14] = Acute toxicity in C57BL/6 mouse assessed as survival rate at 20 mg/kg,ip administration observed after 22 days; format: organism-based; details: in vivo, time 22 day
[15] = tested on: HCT-116; experiment: Cytotoxicity against human HCT-116 cells assessed as cell growth inhibition incubated for 72 hrs by MTT assay; format: functional, cell-based; details: HCT-116, 72 h
[16] = tested on: CCRF-CEM; experiment: Growth inhibition against human CCRF-CEM cells assessed as total growth inhibitory concentration incubated for 48 hrs by sulforhodamine B spectrophotometric assay; format: functional
[17] = tested on: UACC-62; experiment: Growth inhibition against human UACC-62 cells assessed as total growth inhibitory concentration incubated for 48 hrs by sulforhodamine B spectrophotometric assay; format: functional
[18] = tested on: SK-MEL-5; experiment: Growth inhibition against human SK-MEL-5 cells assessed as total growth inhibitory concentration incubated for 48 hrs by sulforhodamine B spectrophotometric assay; format: functional
[19] = tested on: RPMI-8226; experiment: Growth inhibition against human RPMI-8226 cells assessed as lethal concentration incubated for 48 hrs by sulforhodamine B spectrophotometric assay; format: functional; details: read-out: LC50 (the source's name)
[20] = Acute toxicity in C57BL/6 mouse assessed as change in hemoglobin level at 20 mg/kg,ip administration observed after 22 days; format: organism-based; details: in vivo, 528 h, time 22 day
[21] = tested on: MDA-MB-435; experiment: Growth inhibition of human MDA-MB-435 cells incubated for 48 hrs by sulforhodamine B spectrophotometric assay; format: functional
[22] = GSH reactivity of compound at pH 7.4 phosphate buffer assessed as GSH-adduct formation at 1 mM incubated for 1 hr by spectrophotometric analysis; format: physicochemical; details: pH 7.4, 1 h, 1000 µM
[23] = tested on: NCI-H522; experiment: Growth inhibition of human NCI-H522 cells incubated for 48 hrs by sulforhodamine B spectrophotometric assay; format: functional
[24] = tested on: U-251; experiment: Growth inhibition against human U-251 cells assessed as total growth inhibitory concentration incubated for 48 hrs by sulforhodamine B spectrophotometric assay; format: functional
[25] = tested on: TK-10; experiment: Growth inhibition against human TK-10 cells assessed as lethal concentration incubated for 48 hrs by sulforhodamine B spectrophotometric assay; format: functional; details: read-out: LC50 (the source's name)
[26] = tested on: UACC-257; experiment: Growth inhibition against human UACC-257 cells assessed as lethal concentration incubated for 48 hrs by sulforhodamine B spectrophotometric assay; format: functional; details: read-out: LC50 (the source's name)
[27] = tested on: MDA-MB-468; experiment: Growth inhibition against human MDA-MB-468 cells assessed as lethal concentration incubated for 48 hrs by sulforhodamine B spectrophotometric assay; format: functional; details: read-out: LC50 (the source's name)
[28] = tested on: OVCAR-8; experiment: Growth inhibition of human OVCAR-8 cells incubated for 48 hrs by sulforhodamine B spectrophotometric assay; format: functional
[29] = tested on: SK-MEL-2; experiment: Growth inhibition of human SK-MEL-2 cells incubated for 48 hrs by sulforhodamine B spectrophotometric assay; format: functional
[30] = tested on: KB 3-1; experiment: Induction of apoptosis in human KB 3-1 cells assessed as increase in BIP protein expression at 0.5 to 5 uM incubated for 3 hrs by Western blotting assay; format: functional, cell-based; details: dose 0.5-5 µM
[31] = tested on: HCC 2998; experiment: Growth inhibition of human HCC 2998 cells incubated for 48 hrs by sulforhodamine B spectrophotometric assay; format: functional
[32] = tested on: CCRF-CEM; experiment: Induction of cell cycle arrest in human CCRF-CEM cells assessed as RNA synthesis at 20.7 uM incubated for 3 hrs by […] incorporation based flow cytometry analysis (reference value: 31.8 +/- 1.17%); format: functional
[33] = tested on: CCRF-CEM; experiment: Induction of cell cycle arrest in human CCRF-CEM cells assessed as DNA synthesis at 20.7 uM incubated for 2.5 hrs by BrdU incorporation based flow cytometry analysis (reference value: 42.4 +/- 0.66%); format: functional
[34] = tested on: Hs-578T; experiment: Growth inhibition against human Hs-578T cells assessed as total growth inhibitory concentration incubated for 48 hrs by sulforhodamine B spectrophotometric assay; format: functional
[35] = tested on: MDA-MB-231; experiment: Induction of apoptosis in human MDA-MB-231 cells assessed as increase in caspase-8 level at 5 uM incubated for 24 hrs by flow cytometry analysis; format: functional
[36] = tested on: CCRF-CEM; experiment: Induction of cell cycle arrest in human CCRF-CEM cells assessed as accumulation of cells at S phase at 20.7 uM incubated for 24 hrs by propidium iodide staining based flow cytometry analysis (reference value: 41.09 +/- 0.5%); format: functional
[37] = tested on: CCRF-CEM; experiment: Induction of cell cycle arrest in human CCRF-CEM cells assessed as accumulation of cells at sub-G1 phase at 4.14 uM incubated for 24 hrs by propidium iodide staining based flow cytometry analysis (reference value: 2.36 +/- 0.049%); format: functional
[38] = tested on: HOP-62; experiment: Growth inhibition against human HOP-62 cells assessed as total growth inhibitory concentration incubated for 48 hrs by sulforhodamine B spectrophotometric assay; format: functional
[39] = tested on: CCRF-CEM; experiment: Induction of cell cycle arrest in human CCRF-CEM cells assessed as accumulation of cells at M phase at 20.7 uM incubated for 24 hrs by propidium iodide staining based flow cytometry analysis (reference value: 1.97 +/- 0.042%); format: functional
[40] = tested on: NCI/ADR-RES; experiment: Growth inhibition against human NCI-ADR-RES cells assessed as total growth inhibitory concentration incubated for 48 hrs by sulforhodamine B spectrophotometric assay; format: functional
[41] = tested on: PC-3; experiment: Growth inhibition of human PC-3 cells incubated for 48 hrs by sulforhodamine B spectrophotometric assay; format: functional

With O=C1C2=C(C(=O)c3c(O)cccc31)C(c1ccco1)c1sc(=O)[nH]c1S2 (stereo unspecified) the CC50 [1] was 27.3 µM, the IC50 [2] was 2.37 µM and the GI50 [3] was 2.56 µM. For the same molecule, the TGI [4] was 3.72 µM, the TGI [5] was over 100 µM and the GI50 [6] was 2.04 µM. The CC50 [7] was 52.9 µM, the CC50 [8] was 6.86 µM and the TGI [9] was 5.51 µM. The CC50 [10] was 18.4 µM, the TGI [11] was 24.2 µM and the CC50 [12] was 4.75 µM. It also gave a growth at 10 µM [13] of -92.3%, a survival at 528 h [14] of 100% and an IC50 [15] of 0.6 µM. It also gave a TGI [16] of over 100 µM, a TGI [17] of 3.43 µM and a TGI [18] of 3 µM. The CC50 [19] was over 100 µM, the Activity [20] was “Non-Toxic” and the GI50 [21] was 1.16 µM. The Activity [22] was “Active”, the GI50 [23] was 2.31 µM and the TGI [24] was 10.1 µM. For the same molecule, the CC50 [25] was 56.4 µM, the CC50 [26] was 6.75 µM and the CC50 [27] was over 100 µM. The GI50 [28] was 2.46 µM, the GI50 [29] was 3.51 µM and the Activity [30] was “inactive”. The GI50 [31] was 2.5 µM, the Activity [32] was 0.07% and the Activity [33] was 0.9%. For the same molecule, the TGI [34] was 6.56 µM, the Activity [35] was 19.5% and the Activity [36] was 42.33%. The Activity [37] was 5.02%, the TGI [38] was 3.74 µM and the Activity [39] was 1.7%. It also gave a TGI [40] of 12.3 µM and a GI50 [41] of 2.75 µM.
